From paper PMC11358156 (Nature Cardiovascular Research, 2024)

Legend:
β-cardiac myosin (β-MHC) = biological target: T1, β-cardiac myosin (β-MHC) (Bos taurus, UniProt Q9BE39); assay: co-crystal structure at […] Å with aficamten and vanadate; format: binding
T1 construct: gene MYH7; motor domain (MD) in the pre-powerstroke state

[1] = biological target: T2, fast skeletal myosin MYH1 (Oryctolagus cuniculus, UniProt A0A5F9CQ93); assay: myofibril ATPase assay; format: biochemical
T2 construct: with sarcomere proteins (actin, troponin, tropomyosin) of the myofibril
T2 sequence (P02602 2-192): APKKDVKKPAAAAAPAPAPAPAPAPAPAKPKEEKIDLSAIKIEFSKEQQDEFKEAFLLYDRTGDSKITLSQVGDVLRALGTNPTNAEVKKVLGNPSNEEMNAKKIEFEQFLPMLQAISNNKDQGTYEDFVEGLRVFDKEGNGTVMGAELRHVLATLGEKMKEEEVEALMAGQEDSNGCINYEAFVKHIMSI
T2 sequence (P02608 2-170, further chain): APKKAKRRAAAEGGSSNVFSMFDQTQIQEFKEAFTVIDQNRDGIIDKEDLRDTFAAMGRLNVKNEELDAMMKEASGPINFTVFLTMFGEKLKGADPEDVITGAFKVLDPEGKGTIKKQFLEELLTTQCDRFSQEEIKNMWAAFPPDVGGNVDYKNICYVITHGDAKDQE
T2 sequence (A0A5F9CQ93 entry or part of it): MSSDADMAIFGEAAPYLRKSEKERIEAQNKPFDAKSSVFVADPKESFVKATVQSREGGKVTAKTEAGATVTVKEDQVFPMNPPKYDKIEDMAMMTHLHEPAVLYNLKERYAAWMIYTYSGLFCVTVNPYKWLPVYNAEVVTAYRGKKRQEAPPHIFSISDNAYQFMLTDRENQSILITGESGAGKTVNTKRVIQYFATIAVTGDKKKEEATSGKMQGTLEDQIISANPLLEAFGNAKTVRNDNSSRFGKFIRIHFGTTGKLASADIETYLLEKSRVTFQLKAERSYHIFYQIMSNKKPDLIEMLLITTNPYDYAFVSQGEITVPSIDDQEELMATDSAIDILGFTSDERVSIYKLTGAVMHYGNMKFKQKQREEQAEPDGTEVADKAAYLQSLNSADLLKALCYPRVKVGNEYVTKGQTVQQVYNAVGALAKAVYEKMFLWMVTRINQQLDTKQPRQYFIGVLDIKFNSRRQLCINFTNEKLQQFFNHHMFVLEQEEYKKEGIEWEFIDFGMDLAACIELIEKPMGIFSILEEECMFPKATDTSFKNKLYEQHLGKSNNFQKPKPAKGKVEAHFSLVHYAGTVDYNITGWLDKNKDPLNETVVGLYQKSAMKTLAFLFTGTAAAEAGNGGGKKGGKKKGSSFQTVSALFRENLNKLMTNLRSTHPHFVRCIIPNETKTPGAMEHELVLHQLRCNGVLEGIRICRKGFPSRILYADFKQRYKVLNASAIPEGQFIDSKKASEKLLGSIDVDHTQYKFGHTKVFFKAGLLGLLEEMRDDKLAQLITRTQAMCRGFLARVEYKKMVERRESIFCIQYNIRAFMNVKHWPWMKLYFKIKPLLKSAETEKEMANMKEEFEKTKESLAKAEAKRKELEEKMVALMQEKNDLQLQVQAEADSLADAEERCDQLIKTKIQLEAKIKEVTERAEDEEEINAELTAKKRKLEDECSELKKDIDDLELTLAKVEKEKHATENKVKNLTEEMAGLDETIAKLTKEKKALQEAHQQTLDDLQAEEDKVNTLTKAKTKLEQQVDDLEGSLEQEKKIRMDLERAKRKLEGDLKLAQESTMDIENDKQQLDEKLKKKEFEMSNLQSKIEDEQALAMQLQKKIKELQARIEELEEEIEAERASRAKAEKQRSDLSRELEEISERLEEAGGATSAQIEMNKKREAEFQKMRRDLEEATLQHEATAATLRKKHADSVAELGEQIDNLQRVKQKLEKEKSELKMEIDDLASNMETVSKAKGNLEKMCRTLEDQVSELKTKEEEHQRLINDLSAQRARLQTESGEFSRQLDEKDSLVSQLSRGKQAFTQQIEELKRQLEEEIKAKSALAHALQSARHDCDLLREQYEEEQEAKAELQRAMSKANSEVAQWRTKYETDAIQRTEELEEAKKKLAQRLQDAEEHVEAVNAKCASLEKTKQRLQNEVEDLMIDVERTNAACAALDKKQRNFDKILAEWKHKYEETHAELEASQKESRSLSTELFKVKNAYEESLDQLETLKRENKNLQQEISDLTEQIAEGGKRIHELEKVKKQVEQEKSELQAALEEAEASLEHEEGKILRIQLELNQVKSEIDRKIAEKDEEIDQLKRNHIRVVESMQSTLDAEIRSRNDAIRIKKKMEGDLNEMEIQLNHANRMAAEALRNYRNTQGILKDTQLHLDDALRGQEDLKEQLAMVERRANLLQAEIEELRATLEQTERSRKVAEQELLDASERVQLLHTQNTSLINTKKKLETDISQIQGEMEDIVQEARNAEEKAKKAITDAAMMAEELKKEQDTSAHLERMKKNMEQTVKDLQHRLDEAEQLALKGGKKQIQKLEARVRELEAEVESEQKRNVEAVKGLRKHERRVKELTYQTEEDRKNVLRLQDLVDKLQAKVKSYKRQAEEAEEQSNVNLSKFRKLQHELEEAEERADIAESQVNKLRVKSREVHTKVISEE

T1 sequence (Q9BE39 1-782): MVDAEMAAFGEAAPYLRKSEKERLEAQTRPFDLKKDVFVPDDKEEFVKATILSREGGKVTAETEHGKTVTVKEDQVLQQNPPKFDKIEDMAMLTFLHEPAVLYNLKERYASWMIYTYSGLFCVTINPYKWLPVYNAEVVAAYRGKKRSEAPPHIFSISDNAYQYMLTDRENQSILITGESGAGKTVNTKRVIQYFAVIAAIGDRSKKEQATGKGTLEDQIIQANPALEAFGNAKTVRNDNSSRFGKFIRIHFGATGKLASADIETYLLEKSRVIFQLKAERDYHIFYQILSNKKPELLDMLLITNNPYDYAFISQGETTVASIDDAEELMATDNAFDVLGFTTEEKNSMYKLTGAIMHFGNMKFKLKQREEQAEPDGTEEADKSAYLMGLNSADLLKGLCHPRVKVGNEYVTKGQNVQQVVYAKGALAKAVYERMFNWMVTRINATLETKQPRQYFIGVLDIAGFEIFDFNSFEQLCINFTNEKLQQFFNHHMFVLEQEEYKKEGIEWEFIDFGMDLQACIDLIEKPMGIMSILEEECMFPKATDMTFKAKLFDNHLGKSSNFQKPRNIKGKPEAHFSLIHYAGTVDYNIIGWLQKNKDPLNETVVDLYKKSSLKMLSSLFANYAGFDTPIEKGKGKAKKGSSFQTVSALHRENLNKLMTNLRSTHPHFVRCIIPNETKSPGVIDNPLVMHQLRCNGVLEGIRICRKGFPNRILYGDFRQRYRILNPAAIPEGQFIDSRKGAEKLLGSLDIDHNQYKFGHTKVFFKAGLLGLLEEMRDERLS

IC50 [1] | SMILES | co-crystal structure at 2.33 Å with aficamten and vanadate (β-cardiac myosin (β-MHC))
– | Nc1ncnc2c1ncn2[C@@H]1O[C@H](COP(=O)(O)OP(=O)(O)O)[C@@H](O)[C@H]1O [ADP] | the upper inset displays ADP and Vanadate and the lower inset displays aficamten
6.52 µM | CCc1nc(-c2ccc3c(c2)CC[C@H]3NC(=O)c2cnn(C)c2)no1 [aficamten] | –
